Numbers after ± are expanded uncertainties.
Settings: DTA

Glass transition temperature: -75.50 ± 3 °C
SMILES: CC(=O)[O-].CCn1cc[n+](C)c1 [1-ethyl-3-methylimidazolium acetate]

Source: the NIST ThermoML archive (doi:10.1021/je300768j)
